# Assay results published in paper PMC6026870, “Selective induction of cancer cell death by VDAC1‐based peptides and their potential use in cancer therapy” (Molecular Oncology, 2018).
# Where “and” joins values, the source holds several entries; their conditions need not be identical. Equal values may be shown once.
# What was measured:
# [1] = tested on: A549‐, MDA‐MB‐231‐, and U‐87MG‐derived tumors; test: qPCR of excised xenograft tumors; type: in vivo, mouse
# Description: (§1) U‐87MG cells (3 × 10^6/mouse), A549 cells (5 × 10^6/mouse), or MDA‐MB‐231 cells (3 × 10^6/mouse) were inoculated subcutaneously (s.c.) into the hind leg flanks of athymic 8‐week‐old male nude mice (Envigo, Huntingdon, UK). Tumor size was measured using a digital caliper and volume was calculated, and when reached 50–100 mm^3 for each tumor type, mice were randomly divided into two groups (five mice per group). […] The xenografts were injected (two points, 20 μL per tumor) every two days. Beginning on the day of inoculation, mouse weight and tumor volume were monitored twice a week. Experiments were terminated after 14, 29, or 20 days for U‐87MG‐, MDA‐MB‐231‐, or A549‐based tumors, respectively. The mice were sacrificed and tumors were excised. Half of each tumor was fixed in 4% buffered formaldehyde, paraffin‐embedded, and processed for IHC, while the second half was frozen in liquid nitrogen for immunoblotting and qPCR analyses. These experimental protocols were approved by the Institutional Animal Care and Use Committee of Ben‐Gurion University.
# Total RNA was isolated from untreated and peptide‐treated tumors (three mice each) using an RNeasy Mini Kit (Qiagen, Hilden, Germany) according to the manufacturer's instructions. Total RNA quality was analyzed using the Agilent RNA 6000 Nano Kit. […] The levels of target genes were normalized relative to β‐actin mRNA levels. Samples were amplified by a 7300 Real‐Time PCR System (Applied Biosystems) for denaturation step of 5 min at 95 °C and 40 cycles using the following PCR parameters: 95 °C for 15 s, 60 °C for 1 min, and 72 °C for 1 min. The copy numbers for each sample were calculated by the CT‐based calibrated standard curve method. The mean fold changes (±SE) of three replicates were calculated.
# [2] = tested on: U‐87MG cell xenograft; test: Subcutaneous xenograft mouse model, tumor growth; type: in vivo; conditions: U‐87MG s.c. xenograft, nude mice; intratumoral 40 or 60 μM, 20 μL per tumor every two days; 14 days; vs HBSS control; n = 5
# Description: as §1
# [3] = tested on: MDA‐MB‐231 cell xenograft; test: Subcutaneous xenograft mouse model, tumor growth; type: in vivo; conditions: MDA‐MB‐231 s.c. xenograft, nude mice; intratumoral 40 or 60 μM, 20 μL per tumor every two days; 29 days; vs HBSS control; n = 5
# Description: as §1
# [4] = tested on: A549 cell xenograft; test: Subcutaneous xenograft mouse model, tumor growth; type: in vivo; conditions: A549 s.c. xenograft, nude mice; intratumoral 40 or 60 μM, 20 μL per tumor every two days; 20 days; vs HBSS control; n = 5
# Description: as §1
# [5] = tested on: HeLa cells (HK‐I in cytosolic fraction); test: Mitochondria‐bound HK detachment, cell fractionation and immunoblotting; type: cell-based, human; conditions: peptide 3, 5, 10 μM, 3 h, digitonin […], immunoblot (Fig. 4E)
# Description: Peptide‐induced HK detachment from mitochondria to the cytosol was also analyzed by immunoblotting. […] Samples were centrifuged at 12 000 g at 4 °C for 10 min, and the obtained supernatants (cytosolic fraction) and pellets (mitochondria) were analyzed by immunoblotting using anti‐HK‐I, anti‐VDAC1, and anti‐GAPDH antibodies, and then with secondary HRP‐conjugated antibodies.
# [6] = tested on: A549 cells; test: Apoptosis, annexin V–FITC/PI staining and flow cytometry; type: cell-based, human; conditions: A549, 3 h, serum‐free, 37 °C (Figs 5F,G; also MDA‐MB‐231, Fig. S2B,C)
# Description: For PI and annexin V–FITC staining, A549 or MDA‐MB‐231 cells, untreated or treated with VDAC1‐based peptides, were collected (1500 g for 5 min), washed, and resuspended in 200 μL binding buffer (10 mM HEPES/NaOH (pH 7.4), 140 mM NaCl, and 2.5 mM CaCl2). Annexin V–FITC staining was performed according to the recommended protocol. Cells were then washed once with binding buffer and resuspended in 200 μL binding buffer, to which PI was added immediately before flow cytometric analysis. At least 10 000 events were collected, recorded on a dot plot, and analyzed by flow cytometer. Acridine orange/ethidium bromide staining was carried as described previously (Zaid et al., 2005), with cells visualized by fluorescence microscopy (Olympus LX2‐KSP, Tokyo, Japan), and images were captured with a CCD camera. About 200 cells were counted for each experiment.
# [7] = treated tumors vs control, n = 3 (Fig. 7D,E)
smiles,measurement,setting,value
CC[C@H](C)[C@H](NC(=O)[C@H](Cc1ccc(O)cc1)NC(=O)[C@@H]1CCCN1C(=O)[C@H](CCCNC(=N)N)NC(=O)[C@H](Cc1c[nH]cn1)NC(=O)[C@@H](CO)NC(=O)[C@@H](Cc1c[nH]c2ccccc12)NC(=O)[C@H](NC(=O)[C@@H](Cc1c[nH]c2ccccc12)NC(=O)[C@@H](CCC(=O)O)NC(=O)[C@@H](CCCCN)NC(=O)[C@@H](CCCCN)NC(=O)[C@@H](CC(C)C)NC(=O)[C@@H](CCC(=O)O)NC(=O)[C@H](NC(=O)[C@@H](C)NC(=O)[C@H](NC(=O)[C@@H](CC(N)=O)NC(=O)[C@@H](CC(C)C)NC(=O)[C@@H](C)NC(=O)[C@@H](Cc1c[nH]c2ccccc12)NC(=O)[C@H](NC(=O)[C@@H](C)NC(=O)CNC(=O)[C@@H](CC(N)=O)NC(=O)[C@@H](CO)NC(=O)[C@@H](CC(N)=O)NC(=O)[C@@H](CCCCN)NC(=O)[C@@H](Cc1c[nH]c2ccccc12)NC(=O)[C@H](NC(=O)[C@@H](Cc1c[nH]c2ccccc12)NC(=O)[C@H](N)CCCCN)[C@H](C)O)[C@H](C)O)C(C)C)[C@H](C)O)[C@H](C)O)C(=O)N[C@@H](C)C(=O)N[C@@H](Cc1c[nH]cn1)C(=O)O [R‐Tf‐D‐LP4],"decrease in expression of Glut‐1, HK‐I and GAPDH","[1]; A549, MDA‐MB‐231, U‐87MG tumors vs control (Fig. 8)",three‐ to fourfold
same,"p53 expression levels, elevation","[1]; A549‐, MDA‐MB‐231‐, U‐87MG‐derived tumors, n = 3 (Fig. 7D–F)",over two‐ to fivefold
same,Caspase‐8 overexpression,[1]; [7],two‐ to threefold
same,"SMAC/Diablo expression levels, increase",[1]; [7],two‐ to fivefold
same,caspase‐3 overexpression,[1]; [7],two‐ to threefold
same,"Cyto c expression, increase","[1]; treated tumors vs control, n = 3 (Fig. 7D,F)",two‐ to fourfold
same,decrease in tumor volume,[2],~ 80% and 70–80%
same,decrease in tumor volume,[3],~ 80% and 70–80%
same,decrease in tumor volume,[4],~ 80% and 70–80%
same,increase in HK in the cytosolic fraction,[5],about twofold
same,apoptotic cell death (annexin V–FITC and PI staining),[6],over 90%
